# Source: patent publication US7723068B2, “Gene cluster involved in safracin biosynthesis and its uses for genetic engineering” (PharmaMar, S.A., priority 2002, dated 2010)
# System: LN-caP
# Assay: cells
# Conditions: Homo sapiens, LNCaP, read-out: LC50 LN-caP
row,SMILES,CC50 [nM]
1,COc1c(C)cc2c(c1O)C1C3Cc4cc(C)c(OC)c(O)c4C(CNC(=O)C(C)N)N3C(O)C(C2)N1C (stereo not shown) [Safracin P-22B],1200

# System: K-562
# Assay: not given
# Conditions: Leukemia
row,SMILES,TGI K-562 [nM]
1,COc1c(C)cc2c(c1O)C1C3Cc4cc(C)c(OC)c(O)c4C(CNC(=O)C(C)N)N3C(O)C(C2)N1C (stereo not shown) [Safracin P-22B],467

# System: A549
# Assay: not given
# Conditions: NSCL
row,SMILES,TGI A549 [nM]
1,COc1c(C)cc2c(c1O)C1C3Cc4cc(C)c(OC)c(O)c4C(CNC(=O)C(C)N)N3C(O)C(C2)N1C (stereo not shown) [Safracin P-22B],8830

# System: HELA
# Assay: not given
# Conditions: Cervix
row,SMILES,TGI HELA [nM]
1,COc1c(C)cc2c(c1O)C1C3Cc4cc(C)c(OC)c(O)c4C(CNC(=O)C(C)N)N3C(O)C(C2)N1C (stereo not shown) [Safracin P-22B],1830

# System: HELA-APL
# Assay: cells
# Conditions: read-out: GI50 HELA-APL
row,SMILES,GI50 [nM]
1,COc1c(C)cc2c(c1O)C1C3Cc4cc(C)c(OC)c(O)c4C(CNC(=O)C(C)N)N3C(O)C(C2)N1C (stereo not shown) [Safracin P-22B],465

# Same assay, conditions: read-out: LC50 HELA-APL
row,SMILES,CC50 [nM]
1,COc1c(C)cc2c(c1O)C1C3Cc4cc(C)c(OC)c(O)c4C(CNC(=O)C(C)N)N3C(O)C(C2)N1C (stereo not shown) [Safracin P-22B],1860

# System: SK-BR3
# Assay: not given
# Conditions: Breast
row,SMILES,TGI SK-BR3 [nM]
1,COc1c(C)cc2c(c1O)C1C3Cc4cc(C)c(OC)c(O)c4C(CNC(=O)C(C)N)N3C(O)C(C2)N1C (stereo not shown) [Safracin P-22B],2280

# System: PANC1
# Assay: not given
# Conditions: Pancreas
row,SMILES,TGI PANC1 [nM]
1,COc1c(C)cc2c(c1O)C1C3Cc4cc(C)c(OC)c(O)c4C(CNC(=O)C(C)N)N3C(O)C(C2)N1C (stereo not shown) [Safracin P-22B],11700

# System: LOVO
# Assay: cells
# Conditions: Homo sapiens, read-out: GI50 LOVO
row,SMILES,GI50 [nM]
1,COc1c(C)cc2c(c1O)C1C3Cc4cc(C)c(OC)c(O)c4C(CNC(=O)C(C)N)N3C(O)C(C2)N1C (stereo not shown) [Safracin P-22B],2540

# Same assay, conditions: Homo sapiens, read-out: LC50 LOVO
row,SMILES,CC50 [nM]
1,COc1c(C)cc2c(c1O)C1C3Cc4cc(C)c(OC)c(O)c4C(CNC(=O)C(C)N)N3C(O)C(C2)N1C (stereo not shown) [Safracin P-22B],18400

# System: IGROV
# Assay: cells
# Conditions: read-out: GI50 IGROV
row,SMILES,GI50 [nM]
1,COc1c(C)cc2c(c1O)C1C3Cc4cc(C)c(OC)c(O)c4C(CNC(=O)C(C)N)N3C(O)C(C2)N1C (stereo not shown) [Safracin P-22B],849

# Same assay, conditions: read-out: LC50 IGROV
row,SMILES,CC50 [nM]
1,COc1c(C)cc2c(c1O)C1C3Cc4cc(C)c(OC)c(O)c4C(CNC(=O)C(C)N)N3C(O)C(C2)N1C (stereo not shown) [Safracin P-22B],12100

# System: A549
# Assay: cells
# Conditions: Homo sapiens, A549, read-out: GI50 A549
row,SMILES,GI50 [nM]
1,COc1c(C)cc2c(c1O)C1C3Cc4cc(C)c(OC)c(O)c4C(CNC(=O)C(C)N)N3C(O)C(C2)N1C (stereo not shown) [Safracin P-22B],4710

# Same assay, conditions: Homo sapiens, A549, read-out: LC50 A549
row,SMILES,CC50 [nM]
1,COc1c(C)cc2c(c1O)C1C3Cc4cc(C)c(OC)c(O)c4C(CNC(=O)C(C)N)N3C(O)C(C2)N1C (stereo not shown) [Safracin P-22B],16600

# System: Bacillus subtilis
# Assay: Antimicrobial activity on solid medium, disk
# Format: cell-based
# Conditions: Bacillus subtilis, 10 μg/disk (6 mm diameter)
# Description: Antimicrobial activity: On solid medium Bacillus subtilis. 10 μg/disk (6 mm diameter): 10 mm inhibition zone Spectroscopic Data: […]
row,SMILES,zone of inhibition at 10 µg/disc [mm]
1,COc1c(C)cc2c(c1O)C1C3Cc4cc(C)c(OC)c(O)c4C(CNC(=O)C(C)N)N3C(O)C(C2)N1C (stereo not shown) [Safracin P-22B],10

# System: HT29
# Assay: not given
# Conditions: Colon
row,SMILES,TGI HT29 [nM]
1,COc1c(C)cc2c(c1O)C1C3Cc4cc(C)c(OC)c(O)c4C(CNC(=O)C(C)N)N3C(O)C(C2)N1C (stereo not shown) [Safracin P-22B],2750

# System: K-562
# Assay: cells
# Conditions: Homo sapiens, K562, read-out: GI50 K-562
row,SMILES,GI50 [nM]
1,COc1c(C)cc2c(c1O)C1C3Cc4cc(C)c(OC)c(O)c4C(CNC(=O)C(C)N)N3C(O)C(C2)N1C (stereo not shown) [Safracin P-22B],113

# Same assay, conditions: Homo sapiens, K562, read-out: LC50 K-562
row,SMILES,CC50 [nM]
1,COc1c(C)cc2c(c1O)C1C3Cc4cc(C)c(OC)c(O)c4C(CNC(=O)C(C)N)N3C(O)C(C2)N1C (stereo not shown) [Safracin P-22B],1840

# System: LOVO-DOX
# Assay: cells
# Conditions: read-out: GI50 LOVO-DOX
row,SMILES,GI50 [nM]
1,COc1c(C)cc2c(c1O)C1C3Cc4cc(C)c(OC)c(O)c4C(CNC(=O)C(C)N)N3C(O)C(C2)N1C (stereo not shown) [Safracin P-22B],6950

# Same assay, conditions: read-out: LC50 LOVO-DOX
row,SMILES,CC50 [nM]
1,COc1c(C)cc2c(c1O)C1C3Cc4cc(C)c(OC)c(O)c4C(CNC(=O)C(C)N)N3C(O)C(C2)N1C (stereo not shown) [Safracin P-22B],> 19000

# System: IGROV
# Assay: not given
# Conditions: Ovary
row,SMILES,TGI IGROV [nM]
1,COc1c(C)cc2c(c1O)C1C3Cc4cc(C)c(OC)c(O)c4C(CNC(=O)C(C)N)N3C(O)C(C2)N1C (stereo not shown) [Safracin P-22B],2300

# System: HELA-APL
# Assay: not given
# Conditions: Cervix
row,SMILES,TGI HELA-APL [nM]
1,COc1c(C)cc2c(c1O)C1C3Cc4cc(C)c(OC)c(O)c4C(CNC(=O)C(C)N)N3C(O)C(C2)N1C (stereo not shown) [Safracin P-22B],932
